# What was measured:
# [1] = test system: wild-type MDCKII cells; assay: Transepithelial transport in monolayers of wild-type MDCKII cells; details: after 4h, 5 μM (compound 8: 1 μM)
# [2] = target: human ABCB1 (Homo sapiens, UniProt P08183); assay: Transepithelial transport in monolayers of MDCKII cells over-expressing ABCB1; details: for A to B transport (percentage of drug appearing in the opposite compartment) / B to A transport (percentage of drug appearing in the opposite compartment) / Ratio BA/AB (relative transport ratio): MDCKII over-expressing ABCB1, after 4h, 5 μM (compound 8: 1 μM); for Vectorial transport by ABCB1 (in words): MDCKII transduced with human ABCB1
# [3] = target: T1, murine Abcg2 (Mus musculus, UniProt Q7TMS5); assay: Transepithelial transport in monolayers of MDCKII cells over-expressing Abcg2; format: in vitro ADME
# T1 sequence (Q7TMS5 1-657): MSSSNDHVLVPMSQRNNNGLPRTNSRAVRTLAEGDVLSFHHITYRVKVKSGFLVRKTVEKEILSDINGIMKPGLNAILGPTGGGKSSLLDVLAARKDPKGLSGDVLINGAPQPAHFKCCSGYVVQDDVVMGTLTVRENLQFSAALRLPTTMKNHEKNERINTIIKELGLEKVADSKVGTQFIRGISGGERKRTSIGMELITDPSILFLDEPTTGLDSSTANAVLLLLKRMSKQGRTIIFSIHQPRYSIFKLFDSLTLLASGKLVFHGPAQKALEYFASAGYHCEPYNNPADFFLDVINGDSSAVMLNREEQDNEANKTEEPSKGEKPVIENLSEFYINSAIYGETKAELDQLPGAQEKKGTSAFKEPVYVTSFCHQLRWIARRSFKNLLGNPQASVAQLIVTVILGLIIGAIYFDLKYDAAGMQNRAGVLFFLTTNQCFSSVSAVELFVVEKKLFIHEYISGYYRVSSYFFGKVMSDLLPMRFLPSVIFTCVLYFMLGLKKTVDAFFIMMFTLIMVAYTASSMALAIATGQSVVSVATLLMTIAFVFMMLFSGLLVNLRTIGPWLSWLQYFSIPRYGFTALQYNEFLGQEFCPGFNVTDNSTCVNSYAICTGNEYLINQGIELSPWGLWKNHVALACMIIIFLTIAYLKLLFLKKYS
# [4] = ref Moreno-Sanz et al., 2013; cited from earlier work
# [5] = target: T2, FAAH (Mus musculus, UniProt O08914); details: inhibition of brain FAAH activity after systemic administration in mice; ref Moreno-Sanz et al., 2013; cited from earlier work
# T2 sequence (O08914 1-579): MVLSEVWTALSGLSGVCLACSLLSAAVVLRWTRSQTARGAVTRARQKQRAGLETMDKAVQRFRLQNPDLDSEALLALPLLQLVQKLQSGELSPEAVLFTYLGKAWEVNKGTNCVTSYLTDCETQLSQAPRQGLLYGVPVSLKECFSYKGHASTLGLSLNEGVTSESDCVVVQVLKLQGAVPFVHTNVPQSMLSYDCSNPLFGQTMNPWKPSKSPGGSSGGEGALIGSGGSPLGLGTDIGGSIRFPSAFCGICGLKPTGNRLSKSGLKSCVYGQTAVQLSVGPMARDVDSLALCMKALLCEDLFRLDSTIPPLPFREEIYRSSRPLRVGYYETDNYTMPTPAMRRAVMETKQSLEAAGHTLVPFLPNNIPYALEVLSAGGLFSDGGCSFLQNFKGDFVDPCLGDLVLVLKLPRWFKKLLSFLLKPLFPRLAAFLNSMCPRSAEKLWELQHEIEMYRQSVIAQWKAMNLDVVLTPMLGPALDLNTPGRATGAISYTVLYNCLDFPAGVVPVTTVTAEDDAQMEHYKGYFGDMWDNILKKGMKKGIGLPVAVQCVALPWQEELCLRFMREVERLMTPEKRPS
# [6] = Transepithelial transport in monolayers of wild-type MDCKII cells; details: dog, MDCK, Ratio BA/AB (relative transport ratio), after 4h, 5 μM (compound 8: 1 μM)
# [7] = target: T3, Abcg2 (Mus musculus, UniProt Q7TMS5); assay: Transepithelial transport in monolayers of MDCKII cells over-expressing Abcg2; format: in vitro ADME, murine; details: mouse, Ratio BA/AB (relative transport ratio), MDCKII over-expressing Abcg2, after 4h, 5 μM (compound 8: 1 μM)
# T3 sequence (Q7TMS5 1-657): T1 sequence (Q7TMS5 1-657)
# [8] = MDCKII over-expressing Abcg2, after 4h, 5 μM (compound 8: 1 μM)
# human ABCB1, sequence (P08183 whole entry): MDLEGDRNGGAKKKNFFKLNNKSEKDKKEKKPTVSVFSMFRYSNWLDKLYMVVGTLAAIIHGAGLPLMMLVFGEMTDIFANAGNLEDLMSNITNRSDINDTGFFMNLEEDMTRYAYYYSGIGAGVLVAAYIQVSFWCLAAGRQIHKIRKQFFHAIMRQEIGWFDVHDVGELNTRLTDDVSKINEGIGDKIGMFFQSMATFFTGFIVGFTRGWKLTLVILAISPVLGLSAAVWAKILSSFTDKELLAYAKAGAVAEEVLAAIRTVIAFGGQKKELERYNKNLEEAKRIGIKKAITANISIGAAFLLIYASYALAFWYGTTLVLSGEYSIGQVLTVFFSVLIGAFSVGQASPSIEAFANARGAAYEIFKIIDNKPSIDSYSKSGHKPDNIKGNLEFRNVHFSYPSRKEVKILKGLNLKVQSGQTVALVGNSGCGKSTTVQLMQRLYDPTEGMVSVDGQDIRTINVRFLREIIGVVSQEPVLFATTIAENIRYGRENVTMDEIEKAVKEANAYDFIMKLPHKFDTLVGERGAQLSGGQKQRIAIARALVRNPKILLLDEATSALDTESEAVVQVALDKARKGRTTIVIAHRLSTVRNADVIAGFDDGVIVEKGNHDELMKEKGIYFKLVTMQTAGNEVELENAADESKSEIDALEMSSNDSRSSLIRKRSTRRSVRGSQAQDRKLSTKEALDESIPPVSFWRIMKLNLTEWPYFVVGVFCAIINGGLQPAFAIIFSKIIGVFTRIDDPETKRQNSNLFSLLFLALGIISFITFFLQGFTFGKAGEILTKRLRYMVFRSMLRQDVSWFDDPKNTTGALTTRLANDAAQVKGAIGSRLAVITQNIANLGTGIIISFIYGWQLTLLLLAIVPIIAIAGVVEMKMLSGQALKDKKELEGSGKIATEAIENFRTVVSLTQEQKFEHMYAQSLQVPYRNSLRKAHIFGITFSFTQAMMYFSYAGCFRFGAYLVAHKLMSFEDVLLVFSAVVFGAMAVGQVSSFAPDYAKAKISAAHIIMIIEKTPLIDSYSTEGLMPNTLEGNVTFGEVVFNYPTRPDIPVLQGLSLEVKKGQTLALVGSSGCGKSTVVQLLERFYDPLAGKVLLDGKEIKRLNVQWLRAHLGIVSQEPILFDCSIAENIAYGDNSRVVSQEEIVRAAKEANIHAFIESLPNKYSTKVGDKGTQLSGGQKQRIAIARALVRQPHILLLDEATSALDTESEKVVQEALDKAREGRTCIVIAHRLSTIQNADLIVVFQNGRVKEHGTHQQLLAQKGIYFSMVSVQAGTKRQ
SMILES,A to B transport (percentage of drug appearing in the opposite compartment) [1],B to A transport (percentage of drug appearing in the opposite compartment) [1],A to B transport (percentage of drug appearing in the opposite compartment) [2],B to A transport (percentage of drug appearing in the opposite compartment) [2],Ratio BA/AB (relative transport ratio) [2],Vectorial transport by ABCB1 (in words) [2],Transport substrate for Abcg2 (in words) ([3]; MDCKII over-expressing Abcg2),"A to B transport (percentage of drug appearing in the opposite compartment) [3, 8]","B to A transport (percentage of drug appearing in the opposite compartment) [3, 8]","Ratio BA/AB (relative transport ratio) [3, 8]",PSA (polar surface area) [4],Brain ID50 [5],Ratio BA/AB (relative transport ratio) [1],efflux ratio at 4 h [6],efflux ratio at 4 h [7]
CC(=O)c1cccc(-c2cc(OC(=O)NC3CCCCC3)ccc2O)c1 [Compound 3],39.4 ± 0.54%,46.8 ± 2.73%,39.8 ± 1.88%,57.6 ± 7.90%,1.44 ± 0.13,no significant vectorial transport,did not behave as a transport substrate for Abcg2,24.5 ± 2.39 %,30.5 ± 0.75%,1.25 ± 0.13,62 Å^2,<1 mg/kg,–,–,–
CNC(=O)c1cccc(-c2cc(OC(=O)NC3CCCCC3)ccc2O)c1 [Compound 1],21.7 ± 0.96%,48.1 ± 2.33%,8.55 ± 1.79%,67.4 ± 14.5%,–,–,–,6.99 ± 0.99 %,69.8 ± 16.9%,–,73 Å^2,–,–,–,–
COc1ccc(OC(=O)NC2CCCCC2)cc1-c1cccc(C(N)=O)c1 [Compound 7],29.3 ± 0.44%,37.1 ± 1.48%,21.6 ± 0.55%,45.1 ± 3.61%,2.08 ± 0.11,no significant vectorial transport,–,7.29 ± 1.30 %,98.8 ± 16.6%,–,74 Å^2,–,–,–,–
"Cc1ccc(OC(=O)NC2CCCCC2)cc1-c1cccc(C(N)=O)c1 [Compound 8, cyclohexylcarbamic acid 3′-carbamoyl-6-methylbiphenyl-3-yl ester]",26.0 ± 1.52%,27.3 ± 3.8%,20.7 ± 1.00%,35.8 ± 0.43%,–,no significant vectorial transport,–,5.59 ± 0.58 %,64.8 ± 4.87%,–,66 Å^2,–,1.06 ± 0.15,~1,≥ 10
